Test results: patent US4940730A, “Angiogenesis enhancer” (Takeda Chemical Industries, Ltd., priority 1987, dated 1990)

Tests used:
[1] = test system: dorsal air-sack; assay: Mouse dorsal air-sack method; format: in vivo, ICR mice; parameters: key to blood vessel elongation action: +, ++; blood vessel elongation action positive; +, ++; blood vessel elongation action positive; -: blood vessel elongation action negative; details: ten days later; for blood vessel elongation action: 1 mg test sample enveloped in Elvax-40
Procedure: Experimental work was conducted in accordance with the method of Yoshii et al. [Igaku no ayumi, 122 (No. 10), p. 890 (1982)]. More specifically, ICR mice (9-week old, males) were anesthetized, and the hair at the dorsal site was shaved with clippers. The site was sterilized with alcohol, and an injection needle was inserted at the site located at a distance of 1 cm from the tail side. Through the needle, about 20 ml of air was introduced. Then, the air in the air-sack (on the tail side) was drawn out. Test samples enveloped in Elvax®-40 were inserted into both, left and right, sides (at one of the both sides, only Elvax®-40 as the control). The incised site was closed, and, ten days later, the site was incised again and the state of elongation of blood vessel was observed. The test samples enveloped were erucamide, lauramide and erucic acid, and the results compared with one another.

[2] = test system: hen's chlorioallantoic membrane; assay: CAM (Chorio Allantoic Membrane) assay; format: in vivo; details: for ED50: amount of drug which gave the numerical value 5 (positive rate) in CAM assay; for Positive rate of CAM assay: average neovascularization score (++=10, +=7, °=3, -=0), 3 days on membrane
Procedure: CAM (Chorio Allantoic Membrane) assay was conducted on various compounds of the present invention. The technique of the CAM assay was that modified somewhat on Auerbach's method [Developmental Biology, 41, 391 (1974)]. More specifically, hen's fertile eggs were incubated for three days at 37° C. (Napco carbon dioxide incubator-6300 was employed, CO2 :0% H2 O saturated). Polypropylene-made discs (6 mm. diameter) were spotted with a chloroform:ethanol (1:4 by volume) solution of each compound so that the concentration may be 0, 0.25, 0.64, 1.6, 4, 10 and 25 ug, respectively. The test materials were air-dried in a clean bench, which were then placed quietly on hen's chlorioallantoic membrane, followed by incubation at 37° C. for further three days. Then, the vascularization state was observed. In the tables, the positive rates were calculated on the following basis. Namely, degrees of neovascularization were determined as ++ for very strong, + for strong, ° for weak and - for negative, and they were numerized as 10, 7, 3 and 0, respectively. The average numerical value in each of the concentrations of the respective samples was made as positive rate. Further, the amount of the drug which gave the numerical value 5 in each sample was shown as ED50 value (ug/disc).

[3] = test system: cornea; assay: Rat cornea test; format: in vivo, Wister rats; details: after two weeks; for elongation of blood vessels: rat cornea
From the text: Namely, Wister rats (14-week old, male) were anesthetized, then pockets (about 2×3 mm in size) were provided in the cornea. […] The test samples enveloped were erucamide, lauramide and erucic acid, and, as the control, Elvax®-40 in which nothing was enveloped was used.

[4] = amount of sample 0.64 μg per disc
[5] = amount of sample 1.6 μg per disc
[6] = amount of sample 10 μg per disc
[7] = amount of sample 25 μg per disc
[8] = 30 μg test material in Elvax-40 gel in corneal pocket

Compound | blood vessel elongation action [1] | blood vessel elongation ([1]; mouse dorsal air-sack) | ED50 [2] | Positive rate of CAM assay [2, 4] | Positive rate of CAM assay [2, 5] | Positive rate of CAM assay ([2]; amount of sample 4 μg per disc) | Positive rate of CAM assay [2, 6] | Positive rate of CAM assay [2, 7] | Action of elongation of blood vessel [3, 8] | elongation of blood vessels [3] | Action of elongation of blood vessel ([3]; 60 μg test material in Elvax-40 gel in corneal pocket)
CCCCCCCC/C=C\CCCCCCCCCCCC(N)=O [Erucamide] | ++ | strong action of blood vessel elongation | 2.13 ug/disc | 1.4 | 3.4 | 9.4 | 10 | 10 | ++ | strong elongation action | 
CCCCCCCCCCCC(N)=O [Lauramide, reference compound] | - |  |  | 0.3 | 0.7 | 0 | 0 | 0.3 |  |  | -
CCCCCCCC/C=C\CCCCCCCCCCCC(=O)O [Erucic acid] |  |  | 4.69 ug/disc | 1.4 | 2.8 | 4 | 8.2 | 9.4 | ++ | strong elongation action | 
CCCCCCCCC(O)C(O)CCCCCCCCCCCC(N)=O (centres unmarked) [Erucamide, diOH, 13,14-dihydroxydocosanamide] |  |  | 5.62 ug/disc | 0 | 2.0 | 3.8 | 7.0 | 9.4 |  |  | 
CCCCCCCC/C=C\CCCCCCCCCCCC(=O)Nc1ccc(Cl)cc1C(=O)O [2-NH2-4-Cl-BzCO2 H, N-erucoyl-2-amino-5-chlorobenzoic acid] |  |  | 2.70 ug/disc | 2.6 | 4.2 | 5.6 | 8.0 | 10 |  |  | 
CCCCCCCCCCCCCCCC(N)=O [Palmitamide] |  |  | 15.6 ug/disc | 0 | 0 | 0.3 | 2.4 | 7.7 |  |  | 
CCCCCCCC/C=C\CCCCCCCCCCCC(=O)Nc1cccc(C(=O)O)c1 [m-aminobenzoic acid, N-ercoyl-3-aminobenzoic acid] |  |  | 1.28 ug/disc | 2.0 | 6.0 | 7.4 | 10 | 10 |  |  | 
CCCCC/C=C\C/C=C\C/C=C\C/C=C\CCCC(=O)O [Arachidonic acid] |  |  | 3.64 ug/disc | 2.5 | 3.5 | 5.3 | 7 | 10 |  |  | 
CCCCCCCCC(O)C(O)CCCCCCCCCCCC(=O)O (centres unmarked) [Erucic acid diOH] |  |  | 3.45 ug/disc | 0 | 2.0 | 7.4 | 8.2 | 10 |  |  | 
CCCCC/C=C\C/C=C\C/C=C\C/C=C\CCCC(N)=O [Arachidonamide] |  |  | 6.13 ug/disc | 1.3 | 1.6 | 2.9 | 7.4 | 9.6 |  |  | 
CCCCCC[C@@H](O)C/C=C\CCCCCCCC(=O)O [Ricinoleic acid] |  |  |  | 0 | 1.8 | 1.2 | 2.6 | 3.2 |  |  | 
CCCCCCCC/C=C/CCCCCCCCCCCC(=O)O [Brassidic acid] |  |  | 1.82 ug/disc | 3.5 | 6 | 6 | 9.3 | 10 |  |  | 
CCCCCCCCCCCCCCCCCCCCCCCC(=O)O [Lignoceric acid] |  |  | 4.61 ug/disc | 1.4 | 2 | 4.6 | 7.6 | 6.2 |  |  | 
CCCCCCCCCCCCCCCCCC(N)=O [Stearamide] |  |  | 2.63 ug/disc | 0 | 2 | 7.6 | 7.7 | 6.9 |  |  | 
CCCCCCCCCCCCCCCCCCCCCC(N)=O [Behenamide] |  |  | 2.76 ug/disc | 0 | 1.8 | 7.6 | 10 | 10 |  |  | 
CCCCCCCCCCCCCCCCCCCCCCO [Docosan-1-ol] |  |  | 2.55 ug/disc | 0 | 1.8 | 8.3 | 10 | 10 |  |  | 
CCCCCCCC/C=C\CCCCCCCC(=O)O [Oleic acid] |  |  | 13.7 ug/disc | 0 | 0.8 | 2.5 | 4 | 7 |  |  | 
CCCCCCCCCCCCCC(N)=O [Myristamide] |  |  |  | 0 | 0 | 1.3 | 2.6 | 3.5 |  |  | 
